Measured values: patent US20240051952A1, “HMOX1 INDUCERS” (Mitobridge Inc., priority 2019, published 2024)

Columns and labels:
HMOX1 gene = test: HMOX1 mRNA expression in HepG2 cells (Nanostring); format: cell-based, human; conditions: 24 hours treatment
Experimental: Example 147. HMOX1 Inducers of the Invention Strongly Increase In Vitro Expression of HMOX1
(§1) RNA Isolation and Quantification of Gene Expression
(§2) HepG2 cells were seeded at 250 k/well in 12-well tissue culture plates coated with collagen (collagen I, rat tail (thin plate coating); ENZO Life Sciences) for approximately 24 hours. The seeded cells were then treated with dose titration of the compound of Example 17 or dimethyl fumarate (DMF) (a Nrf2 activator; Fisher Scientific) via media change, with biological triplicates performed for each treatment. After approximately 24 hours of treatment, cells were visually inspected to confirm that no toxicity occurred with compound treatment. The treated cells were washed with PBS, aspirated, parafilmed and frozen at −80° C. prior to RNA isolation. RNA was isolated using Machery-Nagel isolation kit (NucleoSpin® RNA: catalog 740955.250) and then quantitated using ThermoFisher Nanodrop.
RNA was diluted for Nanostring gene expression analysis. […]
The relative mRNA levels of the HMOX1 gene in HepG2 cells treated with the compound of Example 17 or DMF were measured according to the methods described above. […]

Heme Oxygenase 1 (HO1) = test: PD study, HMOX1 protein levels in mouse plasma and liver (ELISA); format: in vivo; conditions: HMOX1 protein fold induction vs time-matched vehicle, 50 mpk oral
Experimental: 9-10 week old male C57BL/6 mice were dosed orally with 50 mg/kg of vehicle or compound formulated in 5% w/v tween 80 and 0.5% methyl cellulose. At indicated time points (3 and 6 hours or or 4 and 8 hours post-dosing as shown in the results below), whole blood was collected, animal was sacrificed and liver was collected. Blood samples were transferred to vials containing 4 μL of 10% w/v EDTA, centrifuged at 6000 rpm for 8 in below 10° C. to obtain plasma. Samples were frozen and later processed for HMOX1 protein levels as indicated below:
HMOX 1 Protein Levels: Mouse Liver
Preparation of Homogenization/Lysis Buffer
The homogenization buffer was prepared according Table A.
Immediately prior to use, add DTT (ThermoScientific #R0861) to a final concentration of 5 mM and 100×Halt Protease & Phosphatase Inhibitor Cocktail (ThermoScientific #78440) to a final concentration of 1×.
Preparation of Mouse Liver Samples
Liver samples were crushed by mortar and pestle under freezing conditions. Pulverized tissue was transferred into pre-chilled bead ruptor OMNI tubes (OMNI International, Cat #19-628). 1 mL of homogenization buffer (+DTT and HALT) was added to pulverized tissue and tubes were placed on ice. Samples were loaded and run through bead ruptor at speed 5.64 m/s, for two 20 sec cycles with 10 sec dwell between cycles and samples were immediately returned to ice. All material was transferred to a new chilled 2 mL Eppendorf tube. Samples were centrifuged for 5 minutes at 2,000 rpm at 4° C. Supernatant was transferred to a fresh chilled 1.7 mL Eppendorf tube. Samples were centrifuged for 5 minutes at 2,000 rpm at 4° C. The supernatant, consisting of cytosol and microsomes, was transferred to a fresh chilled 1.7 mL Eppendorf tube. Samples were stored at −80° C. Microsome samples were quantitated using Pierce 660 Assay (ThermoFisher Cat #22660) with pre-diluted BSA standards (ThermoFisher Cat #23208) ranging from 125-2000 μg/mL. Each sample was diluted to 10ng/ul for an ELISA input of 0.5ug in 50ul.
Preparation of Assay Reagents
All assay reagents were provided in the Heme Oxygenase 1 (HO1) Mouse SimpleStep ELISA Kit (Abcam #ab204524). Prior to use, all reagents were equilibrated to room temperature. 1×Wash Buffer PT was prepared by diluting 10×Wash Buffer PT 1:10 with deionized water. Antibody cocktail was prepared by diluting the 10×Capture Antibody and 10×Detector Antibody to 1×in Antibody Diluent 5BI. Mouse heme oxygenase 1 protein standard was reconstituted using 500ul homogenization buffer (Table A), mixed and held at room temperature for 10 minutes prior to dilution. An eight point standard curve was generated by diluting the Stock Standard 1:2 for standard curve ranging from 10,000-156.3 pg/mL.
Heme Oxygenase 1 (HO1) Mouse SimpleStep ELISA
50ul of all samples and standards were added to appropriate wells in duplicate. 50ul of 1×Antibody Cocktail was added to each well. The plate was sealed with provided seal and incubated at room temperature on a plate shaker at 400 rpm. After one hour incubation, the Antibody Cocktail was aspirated and the wells were washed three times with 350ul 1×Wash Buffer PT, aspirating completely between each step. After the last wash was aspirated dry, 100ul TMB Substrate was added to each well and the plate was incubated in the dark at room temperature for 10 minutes on a plate shaker at 400 rpm. After the 10 minute incubation, 100ul of Stop Solution was added to each well. Plate was shaken at 400 rpm for 1 minute to mix. Softmax Pro 7.0.3 was used to read OD at 450 nm as well as for analysis.
Heme Oxygenase 1 Protein Levels in Mouse Plasma
All assay reagents were provided in the Heme Oxygenase 1 (HO1) Mouse SimpleStep ELISA Kit (Abcam #ab204524). 1×Wash Buffer PT was prepared by diluting 10×Wash Buffer PT 1:10 with deionized water. Antibody cocktail was prepared by diluting the 10×Capture Antibody and 10×Detector Antibody to 1×in Antibody Diluent 5BI. […]

FTH1 = FTH1 mRNA expression in HepG2 cells (Nanostring); format: cell-based, human; conditions: 24 hours treatment
Experimental: as §1, §2
RNA was diluted for Nanostring gene expression analysis. The diluted RNA at an input of 200ng RNA was run on a Nanostring instrument, which was supported with nCounter® SPRINT Profiler System and nSolver4.0 Software, nCounter® SPRINT Cartridge, nCounter® SPRINT Reagent Pack, and nCounter© SPRINT Hybridization Buffer. Analysis was done manually using raw data obtained from nSolver4.0 Software. CLTC, POLR2A, RPL27 and TBP were used as reference genes for normalization. Data was graphed as fold change compared to DMSO treatment. […]

With `Cn1c(Nc2nc3ccccc3o2)nc2cc(C(=O)NCCOCCO)ccc21` [Example 17, 2-(benzo[d]oxazol-2-ylamino)-N-(2-(2-hydroxyethoxy)ethyl)-1-methyl-1H-benzo[d]imidazole-5-carboxamide] the “HMOX1 expression, 30 μM compound of Example 17 relative to 250 μM DMF” value (HMOX1 gene) was 4 times, the “HMOX1 expression compared with DMF” value (HMOX1 gene; mRNA fold change vs DMSO) was “much more strongly than DMF” and the “Liver Protein (4 h)” value (Heme Oxygenase 1 (HO1); mouse liver, 4 hours (Study 702)) was 3.3x*. For the same molecule, the “Liver Protein (8 h)” value (Heme Oxygenase 1 (HO1); mouse liver, 8 hours (Study 702)) was 3.1x*, the “Plasma Protein (4 h)” value (Heme Oxygenase 1 (HO1); mouse plasma, 4 hours (Study 702)) was 1.7x* and the “Plasma Protein (8 h)” value (Heme Oxygenase 1 (HO1); mouse plasma, 8 hours (Study 702)) was 1.1x*. The “FTH1 expression fold increase” value (FTH1) was “comparable fold increases”.
